From patent US9089514B2, “Composition and method for inhibiting biogenic sulfide generation” (Arkion Life Sciences, priority 2010, dated 2015)
Values joined by “and” are separate entries in the source; they are usually repeats but may differ in a detail not shown here. Equal values may be shown once.

Tests used:
Format in all cases: cell-based, Prudhoe Bay sulfate reducing bacteria
[1] = system: sulfate reducing bacteria (SRB) biofilms; experiment: Test Series #2: AQ, AHQ and AQ:AHQ slurries, sulfide monitoring in SRB biofilm tubes; conditions: for Sulfides Day 1: day 1, same combined mass of active AQ plus AHQ; for Sulfides Day 1 / Sulfides Day 2 / Sulfides Day 3: AHQ-slurry-2 used; for Sulfides Day 2: day 2, same combined mass of active AQ plus AHQ; for Sulfides Day 3: day 3, same combined mass of active AQ plus AHQ
Procedure: (§1) 1. Load 7 grams of crushed granite chips into 15-ml culture tubes; autoclave.
(§2) 2. Prepare an inoculum by adding a culture of Prudhoe Bay sulfate reducing bacteria to a flask containing an appropriate iron-free culture medium for sulfate reducing bacteria that further contains 90% deaerated artificial sea water. Incubate bacteria anaerobically at 30° C. for 3-4 days.
(§3) 3. Fill each 15 ml culture tube containing granite chips with the inoculum; incubate tubes anaerobically at 30° C. for 7-11 days in a Lab-Line Orbit Environ-Shaker set at 30° C. and 120 rpm. All incubation steps for the bacteria in the culture tubes were performed is in the Environ-Shaker.
(§4) 4. Pour off spent medium and fill with fresh medium. Incubate for 6-7 days then replace medium with fresh medium again. Repeat medium change after 4-8 days and incubate for 3-5 additional days.
(§5) 5. Treat the biofilms that have grown on the granite chips as described below. Incubate at 30° C.
(§6) 6. Monitor the aqueous sulfide content in the tubes daily for up to three days, beginning the day after treatment, to determine the effectiveness of each treatment option on generation of hydrogen sulfide. Sulfide dissolved in the medium was determined in mg/L using Hach Method 8131 for the Hach DR-2010 spectrophotometer. The method utilizes methylene blue to measure total sulfides. The sulfide level in each tube was determined by gently inverting the tube several times, uncapping the tube and quickly removing a 125 μl aliquot of solution, and recapping the tube. The aliquot was diluted in 24.9 ml of deionized water in a quartz cuvette for the Hach procedure. The procedure is summarized in Table 1 for three separate test series.
(§7) This test series was performed to further compare the efficacy of slurries of AHQ and AQ and combinations of AHQ/AQ in slurries in controlling H2S emissions. AHQ-slurry-2 was used in this series of experiments. The tests were performed by first removing the spent medium from the tubes, refilling with fresh medium, treating with the test solution, tumbling the tubes for two minutes, and then incubating at 30° C. in the Lab-Line Orbit Environ-Shaker.
Each test was made with the same combined mass of active AQ plus AHQ. Results, as summarized in Table 3 and FIG. 2, confirmed the results of Series #1 in that all treatments were effective compared with the control.

[2] = system: sulfate reducing bacteria (SRB) biofilms; experiment: Test Series #3b: simulated gravity settling, AQ vs AHQ-slurry-2, sulfide monitoring
Procedure: as §6
(§8) Gravity settling in the tank was simulated by spinning the culture tubes after treatment in a laboratory centrifuge at 2000 to 2700 rpm. The AQ or AHQ particles then “settled” to the bottom of the tube and were able to deposit into the biofilm on the granite chips. The medium above the granite chips was then removed and replaced with fresh medium. The tubes were then incubated at 30° C. in the Lab-Line Orbit Environ-Shaker. The concentration of AQ or AHQ in the removed medium was analyzed to determine the amount of AQ or AHQ deposited in the biofilm. Experiments were run with duplicate samples.
Test Series #3b was performed with the same procedure as Test Series #3a to compare the efficacy of the AQ test mixture (AQ) with that of AHQ-slurry-2 at the same AHQ or AQ mass loading (0.254 mg). The tubes were spun for 20 seconds.

[3] = system: sulfate reducing bacteria (SRB) biofilms; experiment: Test Series #1: inhibition of H2S biogeneration from SRB biofilms on granite chips; conditions: for Sulfides Day 1: day 1 after treatment; for Sulfides Day 1 / Sulfides Day 2 / Sulfides Day 3: THPS 51 ppmw, AQ or AHQ (AHQ-slurry-1) 25 ppmw per tube, 30° C.; for Sulfides Day 2: day 2 after treatment; for Sulfides Day 3: day 3 after treatment
Procedure: as §1, §2, §3, §4, §5, §6
Following the growth of the sulfate reducing bacteria (SRB) biofilms on the granite chips in the culture tubes, the biofilms were treated by injecting the appropriate test solution and then gently tumbling the tubes for two minutes on a Barnstead/Thermolyne Labquake Tube Shaker to allow the treatment solution to dynamically contact the biofilms.
Test compound solutions were injected into the tubes. THPS was added to 51 ppmw per tube. AQ and AHQ-slurry-1 were added to 25 ppmw AQ or AHQ per tube. Each tube contained about 14 ml of medium. The tubes were tumbled for two minutes, then moved to a nitrogen glove bag. The liquid was removed and the tubes were washed once with is medium and then refilled with medium. The tubes were then tumbled once more for two minutes before being placed in a Lab-Line Orbit Environ-Shaker set at 30° C. and 120 rpm for incubation.
Control tubes contained biofilms on granite chips and culture medium, but no test compound. Control tubes were otherwise handled as described above for test-compound tubes.
In THPS-treated tubes all of the residual THPS was removed so that biocidal activity occurred only during the contact time while tumbling. In AQ and AHQ treated tubes, residual test solutions were allowed to remain in the tubes to simulate treatment in a tank, where AQ or AHQ settles in the biofilm/sludge at the bottom of the vessel. Treatments were performed in duplicate.

[4] = system: sulfate reducing bacteria (SRB) biofilms; experiment: Test Series #3a: simulated gravity settling in tank (centrifugation), sulfide monitoring; conditions: 0.254 mg AHQ
Procedure: as §6, §8
Two series of tests were performed with this procedure. Series #3a compared the efficacy of treating with the AHQ di-alkali salt test solution (AHQ) and the AHQ test mixture #2 (AHQ-slurry-2) at the same AHQ mass loading (0.254 mg AHQ). Two different centrifugation times (20 sec, 60 sec) were utilized in Test Series #3a to represent two different tank residence times.

[5] = system: sulfate reducing bacteria (SRB) biofilms; experiment: AHQ di-alkali salt solution vs AHQ-slurry-2 by the Test Series #2 procedure; conditions: 18 ppmw AHQ
Procedure: as §6, §7
Each test treatment contained 18 ppmw AHQ. […] However, under some circumstances, larger particle sizes are preferable. […]

Row | Compound | inhibiting the generation of H2S (comparison in words) [1] | Sulfides Day 1 [1] | Sulfides Day 2 [1] | Sulfides Day 3 [1] | inhibiting H2S generation (comparison in words) [2] | inhibiting H2S biogeneration from SRB biofilms (comparison in words) [3] | Sulfides Day 1 [3] | Sulfides Day 2 [3] | Sulfides Day 3 [3] | Sulfides Day 1 ([4]; centrifugation 20 sec) | Sulfides Day 2 ([4]; centrifugation 20 sec) | Sulfides Day 3 ([4]; centrifugation 20 sec) | Sulfides Day 1 ([4]; centrifugation 60 sec) | Sulfides Day 2 ([4]; centrifugation 60 sec) | Sulfides Day 3 ([4]; centrifugation 60 sec) | reducing sulfides (comparison in words) [5] | sulfides on day 3 of treatment ([5]; Test Series #2 procedure (no settling)) | Sulfides Day 1 ([2]; spun 20 sec, 0.254 mg AHQ or AQ, day 1) | Sulfides Day 2 ([2]; spun 20 sec, 0.254 mg AHQ or AQ, day 2)
1 | Oc1c2ccccc2c(O)c2ccccc12 [AHQ, anthrahydroquinone] | more effective than AQ solution alone or AHQ/AQ neutral slurry combinations | 22.2 mg/L and 19.6 mg/L | 31 mg/L and 26.6 mg/L | 36.8 mg/L and 36.4 mg/L | superior to AQ in inhibiting H2S generation | superior to THPS, AQ, and the combination of THPS and AQ | 9.2 mg/L and 11.2 mg/L | 23 mg/L and 27 mg/L | 30.6 mg/L and 31 mg/L | – | – | – | – | – | – | – | – | – | –
2 | [Na+].[Na+].[O-]c1c2ccccc2c([O-])c2ccccc12 [AHQ, dialkali salt solution, anthrahydroquinone di-alkali salt] | – | – | – | – | – | – | – | – | – | 29 mg/L and 31 mg/L | 37.6 mg/L and 45.2 mg/L | 42 mg/L and 48.6 mg/L | 36.6 mg/L and 21.8 mg/L | 50.8 mg/L and 37 mg/L | 53.6 mg/L and 42.6 mg/L | superior to AHQ neutral slurry in reducing sulfides | 7.4 mg/L | – | –
3 | O=C1c2ccccc2C(=O)c2ccccc21 [AQ, anthraquinone] | – | 33.2 mg/L and 30.4 mg/L | 40 mg/L and 38.8 mg/L | 44.4 mg/L and 43.2 mg/L | – | comparable to THPS treatment | 22.6 mg/L and 19 mg/L | 41.2 mg/L and 34.6 mg/L | 46.2 mg/L and 40.8 mg/L | – | – | – | – | – | – | – | – | 43.8 mg/L and 33.8 mg/L | 54.2 mg/L and 50.2 mg/L
4 | tetrakishydroxymethylphosphonium sulfate [THPS] | – | – | – | – | – | – | 18 mg/L and 19.8 mg/L | 39.6 mg/L and 38.4 mg/L | 46.2 mg/L | – | – | – | – | – | – | – | – | – | –
